One data set concerns the target Cytochrome P450 2C9 (Homo sapiens, UniProt P11712).
The target in another data set is Cytochrome P450 2C19 (Homo sapiens, UniProt P33261). Briefly: Cytochrome panel assay with activity outcomes. Panel member name: p450-cyp2c19 Compounds with AC50 equal or less than 10 uM are considered active. Type of data set: functional.
The target of data set [1] is T1, Cytochrome P450 2D6 (Homo sapiens, UniProt P10635).
The target of a further data set is Cytochrome P450 3A4 (Homo sapiens, UniProt P08684).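 Note: CYP3A4 tested as one member of a cytochrome P450 panel screen.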
Sequence of Cytochrome P450 3A4 (P08684 whole entry): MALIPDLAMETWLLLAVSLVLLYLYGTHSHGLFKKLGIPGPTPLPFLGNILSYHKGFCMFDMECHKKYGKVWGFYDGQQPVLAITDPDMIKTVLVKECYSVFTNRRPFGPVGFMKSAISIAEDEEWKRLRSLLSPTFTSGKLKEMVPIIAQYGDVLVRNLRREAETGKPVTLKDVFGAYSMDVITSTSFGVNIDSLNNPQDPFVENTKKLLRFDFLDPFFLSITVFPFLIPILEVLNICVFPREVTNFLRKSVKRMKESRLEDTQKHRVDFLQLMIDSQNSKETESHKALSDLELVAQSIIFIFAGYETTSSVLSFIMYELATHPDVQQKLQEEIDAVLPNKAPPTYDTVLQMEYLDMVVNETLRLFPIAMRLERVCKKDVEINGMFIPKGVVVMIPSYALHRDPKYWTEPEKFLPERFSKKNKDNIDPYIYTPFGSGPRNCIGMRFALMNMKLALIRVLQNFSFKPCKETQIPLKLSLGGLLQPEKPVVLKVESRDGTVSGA
The target in another data set is Beta-galactosidase (Escherichia coli, UniProt Q8VNN2). Briefly: PubChem AID 485352. It counts as functional.
Sequence of Beta-galactosidase (Q8VNN2 whole entry): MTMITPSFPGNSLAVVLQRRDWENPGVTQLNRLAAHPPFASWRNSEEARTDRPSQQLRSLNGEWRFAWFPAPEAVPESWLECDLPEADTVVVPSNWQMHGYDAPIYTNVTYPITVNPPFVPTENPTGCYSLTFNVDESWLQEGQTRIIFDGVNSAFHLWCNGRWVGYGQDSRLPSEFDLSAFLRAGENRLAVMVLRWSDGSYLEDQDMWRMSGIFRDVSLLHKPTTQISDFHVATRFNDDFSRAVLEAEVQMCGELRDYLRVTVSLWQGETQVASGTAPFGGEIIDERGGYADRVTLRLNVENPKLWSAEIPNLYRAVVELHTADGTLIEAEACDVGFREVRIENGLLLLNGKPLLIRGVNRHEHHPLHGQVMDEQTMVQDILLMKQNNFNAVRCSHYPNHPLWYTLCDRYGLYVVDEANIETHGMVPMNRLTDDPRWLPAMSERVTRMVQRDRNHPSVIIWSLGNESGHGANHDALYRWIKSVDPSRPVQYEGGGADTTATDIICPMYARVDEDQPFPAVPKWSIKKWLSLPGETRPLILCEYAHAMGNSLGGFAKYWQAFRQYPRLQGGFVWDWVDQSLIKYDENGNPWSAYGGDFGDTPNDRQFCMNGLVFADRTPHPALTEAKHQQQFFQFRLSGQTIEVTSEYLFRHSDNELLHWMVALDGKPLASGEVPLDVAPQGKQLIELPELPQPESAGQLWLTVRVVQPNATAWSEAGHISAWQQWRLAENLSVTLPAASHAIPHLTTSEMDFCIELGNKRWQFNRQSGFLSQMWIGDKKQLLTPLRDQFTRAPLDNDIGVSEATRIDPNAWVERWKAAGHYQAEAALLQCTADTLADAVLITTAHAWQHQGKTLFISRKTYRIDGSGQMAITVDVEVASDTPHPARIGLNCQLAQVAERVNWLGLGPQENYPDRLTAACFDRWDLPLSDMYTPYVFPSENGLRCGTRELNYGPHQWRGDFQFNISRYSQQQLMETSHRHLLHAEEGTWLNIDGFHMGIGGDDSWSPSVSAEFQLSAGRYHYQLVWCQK
In data set [2] the target is T2, Type-1 angiotensin II receptor (Homo sapiens, UniProt P30556).
T2 sequence (P30556 whole entry): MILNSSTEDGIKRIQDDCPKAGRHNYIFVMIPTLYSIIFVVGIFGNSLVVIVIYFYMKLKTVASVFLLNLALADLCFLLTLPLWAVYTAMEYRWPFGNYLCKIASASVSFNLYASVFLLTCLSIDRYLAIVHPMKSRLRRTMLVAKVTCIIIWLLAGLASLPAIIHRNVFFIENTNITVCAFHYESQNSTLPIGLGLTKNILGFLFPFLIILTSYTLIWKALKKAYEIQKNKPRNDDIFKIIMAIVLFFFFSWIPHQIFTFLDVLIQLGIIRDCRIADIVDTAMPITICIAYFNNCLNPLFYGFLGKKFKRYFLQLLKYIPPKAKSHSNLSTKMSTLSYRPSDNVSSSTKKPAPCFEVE
Briefly: AT1 receptor antagonists, dose response, selectivity assay for APJ receptor antagonist project, cell-based, uHTS hits (AID 463214).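 Note: antagonist potency against angiotensin II stimulated AT1 response.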 It counts as functional.

In data set [3] the target is T3, Heat shock factor protein 1 (Mus musculus, UniProt P38532).
T3 sequence (P38532 whole entry): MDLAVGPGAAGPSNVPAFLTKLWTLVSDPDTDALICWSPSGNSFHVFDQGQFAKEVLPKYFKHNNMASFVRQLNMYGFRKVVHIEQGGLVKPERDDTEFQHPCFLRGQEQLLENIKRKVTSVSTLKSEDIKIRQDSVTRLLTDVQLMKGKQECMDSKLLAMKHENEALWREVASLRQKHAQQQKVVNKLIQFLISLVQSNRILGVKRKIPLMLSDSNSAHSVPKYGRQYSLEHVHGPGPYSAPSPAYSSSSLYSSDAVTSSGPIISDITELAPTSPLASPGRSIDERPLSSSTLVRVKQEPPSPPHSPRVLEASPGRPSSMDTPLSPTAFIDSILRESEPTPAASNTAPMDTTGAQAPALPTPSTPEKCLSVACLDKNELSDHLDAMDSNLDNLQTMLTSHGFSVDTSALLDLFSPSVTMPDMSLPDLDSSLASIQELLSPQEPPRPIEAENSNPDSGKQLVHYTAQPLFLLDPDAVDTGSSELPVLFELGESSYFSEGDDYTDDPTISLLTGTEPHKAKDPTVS
Briefly: HSF1 potentiators in luciferase reporter cells, confirmation, cell-based, NIH3T3, luminescence, dose retest (AID 435004).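 Note: stress induced by proteasome inhibitor MG132 added 30 min after compound; luciferase reporter driven by HSF1 response element in NIH3T3 cells; actives raise luminescence as potentiators of the MG132 stress response.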 Type of data set: functional.

For data set [4], the target named is Delta-type opioid receptor (Homo sapiens, UniProt P41143). Briefly: Counterscreen for agonists of heterodimerization of the mu 1 (OPRM1) and delta 1 (OPRD1) opioid receptors: Luminescence-based cell-based high throughput dose response assay to identify agonists of OPRD1 homodimerization. [Related pubchem assays (depositor defined):AID504326, AID504355, AID504692, AID504904, AID504905]. It counts as functional.
Sequence of Delta-type opioid receptor (P41143 whole entry): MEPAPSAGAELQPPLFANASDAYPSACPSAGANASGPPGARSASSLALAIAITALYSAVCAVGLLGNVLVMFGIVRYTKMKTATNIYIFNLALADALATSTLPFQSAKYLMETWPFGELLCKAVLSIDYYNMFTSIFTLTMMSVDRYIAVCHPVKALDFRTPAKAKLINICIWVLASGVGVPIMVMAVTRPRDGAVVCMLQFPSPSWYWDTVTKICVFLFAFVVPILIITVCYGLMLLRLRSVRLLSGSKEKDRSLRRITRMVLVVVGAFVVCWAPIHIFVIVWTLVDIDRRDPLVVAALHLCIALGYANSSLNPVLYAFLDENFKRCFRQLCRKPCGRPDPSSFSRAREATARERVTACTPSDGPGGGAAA

A further data set concerns the target Mu-type opioid receptor (Homo sapiens, UniProt P35372). Description: Counterscreen for agonists of heterodimerization of the mu 1 (OPRM1) and delta 1 (OPRD1) opioid receptors: Luminescence-based cell-based high throughput dose response assay to identify agonists of OPRM1 homodimerization. It counts as functional. (Counterscreens check selectivity or assay interference.);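 note: U2OS cells expressing OPRM1 and beta-arrestin as split beta-galactosidase partners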

Data set [5] has as its target 5-hydroxytryptamine receptor 5A (Homo sapiens, UniProt P47898). Description: Counterscreen for agonists of OPRM1-OPRD1 heterodimerization: luminescence-based cell-based high throughput dose response assay to identify agonists of 5-hydroxytryptamine (serotonin) 5A receptor (HTR5A). [Related pubchem assays (depositor defined):AID504326, AID504355, AID504692, AID504904, AID504905]. It counts as functional.

A short description of data set [6]: inhibitors of intracellular T. cruzi replication, confirmation, NIH3T3 host cells, beta-gal luminescence (AID 2044).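 Note: intracellular parasites grown in NIH/3T3 mouse fibroblasts as host cells; luminescent beta-galactosidase reporter signal from transgenic T. cruzi replicating inside host cells; inhibitors lower the luminescence signal.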 Type of data set: functional, cell-based.
Data set [7] in a line: cytotoxicity toward NIH3T3 fibroblasts, dose response, counter-screen, cell-based, ATP luminescence, mouse fibroblasts (AID 2010).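 Note: cells exposed to compound for about 90 hours before reading.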 It counts as functional.
The target of a further data set is T4, Bcl-2-related protein A1 (Mus musculus, UniProt Q07440).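 Note: confirmatory dose–response counterscreen on Bfl-1, used to check hits from a UBC13 polyubiquitin inhibitor campaign.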
T4 sequence (Q07440 whole entry): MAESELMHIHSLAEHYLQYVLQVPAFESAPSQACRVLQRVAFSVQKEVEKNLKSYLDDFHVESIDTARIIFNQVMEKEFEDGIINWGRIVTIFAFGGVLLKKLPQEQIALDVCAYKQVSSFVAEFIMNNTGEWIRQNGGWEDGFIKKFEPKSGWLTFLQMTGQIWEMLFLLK
Type of data set: functional.

The target of data set [8] is T5, Ubiquitin-conjugating enzyme E2 N (Homo sapiens, UniProt P61088).
T5 sequence (P61088 whole entry): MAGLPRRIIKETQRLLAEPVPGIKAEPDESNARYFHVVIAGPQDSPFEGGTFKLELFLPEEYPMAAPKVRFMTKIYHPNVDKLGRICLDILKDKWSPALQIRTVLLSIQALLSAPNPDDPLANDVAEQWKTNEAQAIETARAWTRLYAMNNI
It counts as functional.

Data set [9] deals with T5, Ubiquitin-conjugating enzyme E2 N. Type of data set: functional. The source holds these as a separate data set.
The target in data set [10] is T6, DNA repair and recombination protein RAD54-like (Homo sapiens, UniProt Q92698).
T6 sequence (Q92698 whole entry): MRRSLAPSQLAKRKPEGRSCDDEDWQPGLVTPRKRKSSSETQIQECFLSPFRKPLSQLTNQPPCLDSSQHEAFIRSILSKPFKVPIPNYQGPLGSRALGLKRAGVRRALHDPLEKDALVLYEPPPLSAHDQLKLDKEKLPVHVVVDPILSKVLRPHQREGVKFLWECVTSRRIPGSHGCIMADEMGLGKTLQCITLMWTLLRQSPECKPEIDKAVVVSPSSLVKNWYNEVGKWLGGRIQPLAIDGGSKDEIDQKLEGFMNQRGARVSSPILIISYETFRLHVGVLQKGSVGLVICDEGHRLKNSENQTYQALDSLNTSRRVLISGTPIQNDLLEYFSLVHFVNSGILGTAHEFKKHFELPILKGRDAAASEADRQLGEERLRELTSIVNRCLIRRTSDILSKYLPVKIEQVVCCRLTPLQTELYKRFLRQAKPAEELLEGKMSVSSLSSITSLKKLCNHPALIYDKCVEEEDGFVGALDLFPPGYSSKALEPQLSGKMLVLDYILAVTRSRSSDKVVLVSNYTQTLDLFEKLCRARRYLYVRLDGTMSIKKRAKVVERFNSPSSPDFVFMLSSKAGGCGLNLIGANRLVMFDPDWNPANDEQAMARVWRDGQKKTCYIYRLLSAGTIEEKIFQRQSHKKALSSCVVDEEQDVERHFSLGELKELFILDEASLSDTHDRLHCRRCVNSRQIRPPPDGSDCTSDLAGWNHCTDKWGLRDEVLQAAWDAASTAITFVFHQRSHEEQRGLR
Briefly: inhibitors of human RAD54 branch migration, confirmation, biochemical, fluorescence, cherry-picked samples, dose series (AID 651657). It counts as functional.

For data set [11], the target named is T7, Short transient receptor potential channel 4 (Mus musculus, UniProt Q9QUQ5).
T7 sequence (Q9QUQ5 whole entry): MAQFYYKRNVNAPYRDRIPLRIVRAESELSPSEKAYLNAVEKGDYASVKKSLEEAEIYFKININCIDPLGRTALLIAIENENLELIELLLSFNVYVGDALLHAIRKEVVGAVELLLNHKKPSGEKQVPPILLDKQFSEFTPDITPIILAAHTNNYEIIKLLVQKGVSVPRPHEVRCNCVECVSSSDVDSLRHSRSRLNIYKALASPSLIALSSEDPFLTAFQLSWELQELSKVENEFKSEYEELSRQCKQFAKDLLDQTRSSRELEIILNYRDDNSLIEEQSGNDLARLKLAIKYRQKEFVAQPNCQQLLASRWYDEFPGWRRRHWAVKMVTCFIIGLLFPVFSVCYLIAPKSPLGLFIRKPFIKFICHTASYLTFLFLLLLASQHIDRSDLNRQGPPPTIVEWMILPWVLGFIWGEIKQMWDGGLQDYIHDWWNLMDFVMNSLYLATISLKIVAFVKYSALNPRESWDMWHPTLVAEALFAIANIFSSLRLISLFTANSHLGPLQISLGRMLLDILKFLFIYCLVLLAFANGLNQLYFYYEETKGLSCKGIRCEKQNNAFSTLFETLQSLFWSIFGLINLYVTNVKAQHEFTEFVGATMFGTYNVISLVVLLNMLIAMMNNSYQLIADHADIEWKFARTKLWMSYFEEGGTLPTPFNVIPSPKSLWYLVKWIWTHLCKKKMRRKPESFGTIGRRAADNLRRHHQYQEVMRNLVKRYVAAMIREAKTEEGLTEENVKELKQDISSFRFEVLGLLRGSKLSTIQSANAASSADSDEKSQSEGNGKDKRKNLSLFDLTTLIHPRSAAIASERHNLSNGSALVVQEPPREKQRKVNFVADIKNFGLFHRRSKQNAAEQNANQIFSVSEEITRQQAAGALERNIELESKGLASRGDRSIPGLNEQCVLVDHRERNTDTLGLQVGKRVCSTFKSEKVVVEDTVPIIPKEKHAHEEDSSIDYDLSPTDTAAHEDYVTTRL
Description: mouse TRPC4 channel activators, dose response, cell-based, HEK293 TRPC4/mu-opioid, Fluo-4 calcium (AID 434937). Type of data set: functional.

Data set [12] relates to HEK293. Briefly: cells. The settings on record: Homo sapiens.
The test system of data set [13] is HEK293. Description: cells. The settings on record: Homo sapiens. This is another data set of the same source.
The target in data set [14] is T1, Cytochrome P450 2D6. This is another data set of the same source.
A short description of data set [15]: inhibitors of HIV Env-driven cell fusion, dose response, cherry-pick (AID 652057). Type of data set: functional, cell-based.
A short description of data set [16]: ZM109 Env clade C HIV-1 fusion inhibitors, dose response, HeLa effector, CEM target cells, luciferase, cherry-pick (AID 652058). Type of data set: functional, cell-based.
The nature of data set [17]: off-target signal loss in HeLa-CEM21 co-culture – HeLa F-luc CTL cells, cherry-picked, counter-screen for HIV-1 Env fusion inhibitor project, dose response (AID 652040).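 Note: potency for signal decrease marking cytotoxic or nonspecific inhibition.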 It counts as functional, cell-based.
A short description of data set [18]: inhibitors of clade B AD8 Env fusion, dose response, cell-based, cherry-pick (AID 652062).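 Note: luciferase signal from cell-cell fusion driven by HIV-1 clade B AD8 Env; potency is for inhibitors of fusion seen as a drop in luminescence.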 It counts as functional.

Calls of active or inactive are those of the source. Where only a bound is given, the exact number is not on record here.

T1 sequence (P10635 whole entry): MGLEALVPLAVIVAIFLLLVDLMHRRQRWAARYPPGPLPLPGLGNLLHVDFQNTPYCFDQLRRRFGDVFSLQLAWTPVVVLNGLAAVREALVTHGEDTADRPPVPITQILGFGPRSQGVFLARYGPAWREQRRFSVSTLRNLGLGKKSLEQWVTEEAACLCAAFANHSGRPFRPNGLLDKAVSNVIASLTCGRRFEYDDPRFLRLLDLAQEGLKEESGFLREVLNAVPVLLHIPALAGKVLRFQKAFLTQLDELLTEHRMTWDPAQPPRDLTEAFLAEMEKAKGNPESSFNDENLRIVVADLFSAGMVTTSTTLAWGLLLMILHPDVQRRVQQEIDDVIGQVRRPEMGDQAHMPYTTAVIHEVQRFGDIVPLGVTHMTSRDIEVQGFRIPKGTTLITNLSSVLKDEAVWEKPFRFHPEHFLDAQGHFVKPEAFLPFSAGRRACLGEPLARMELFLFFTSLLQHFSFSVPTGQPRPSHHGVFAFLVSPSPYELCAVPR
Sequence of 5-hydroxytryptamine receptor 5A (P47898 whole entry): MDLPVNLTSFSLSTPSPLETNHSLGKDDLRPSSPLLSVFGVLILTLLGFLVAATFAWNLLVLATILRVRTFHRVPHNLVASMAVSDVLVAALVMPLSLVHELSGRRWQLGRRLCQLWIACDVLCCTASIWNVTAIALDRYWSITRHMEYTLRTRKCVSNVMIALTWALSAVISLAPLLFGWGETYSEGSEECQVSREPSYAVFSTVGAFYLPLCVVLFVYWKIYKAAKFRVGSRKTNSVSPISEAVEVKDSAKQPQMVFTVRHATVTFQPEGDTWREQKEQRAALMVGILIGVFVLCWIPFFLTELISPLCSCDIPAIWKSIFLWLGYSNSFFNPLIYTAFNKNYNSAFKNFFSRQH
Sequence of Cytochrome P450 2C19 (P33261 whole entry): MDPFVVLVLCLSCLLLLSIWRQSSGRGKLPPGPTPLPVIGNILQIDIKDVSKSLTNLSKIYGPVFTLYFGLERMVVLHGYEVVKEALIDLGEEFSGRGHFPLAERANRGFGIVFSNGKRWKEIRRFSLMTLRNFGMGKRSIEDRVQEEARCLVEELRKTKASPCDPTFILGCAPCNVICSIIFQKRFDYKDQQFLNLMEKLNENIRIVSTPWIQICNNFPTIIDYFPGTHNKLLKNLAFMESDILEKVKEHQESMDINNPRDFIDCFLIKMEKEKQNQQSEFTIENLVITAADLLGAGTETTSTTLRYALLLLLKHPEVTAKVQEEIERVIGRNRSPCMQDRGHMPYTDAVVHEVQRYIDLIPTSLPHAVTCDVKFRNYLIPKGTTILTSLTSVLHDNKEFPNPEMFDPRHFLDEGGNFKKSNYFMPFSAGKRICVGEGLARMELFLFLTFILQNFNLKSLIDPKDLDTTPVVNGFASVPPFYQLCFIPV
Sequence of Mu-type opioid receptor (P35372 whole entry): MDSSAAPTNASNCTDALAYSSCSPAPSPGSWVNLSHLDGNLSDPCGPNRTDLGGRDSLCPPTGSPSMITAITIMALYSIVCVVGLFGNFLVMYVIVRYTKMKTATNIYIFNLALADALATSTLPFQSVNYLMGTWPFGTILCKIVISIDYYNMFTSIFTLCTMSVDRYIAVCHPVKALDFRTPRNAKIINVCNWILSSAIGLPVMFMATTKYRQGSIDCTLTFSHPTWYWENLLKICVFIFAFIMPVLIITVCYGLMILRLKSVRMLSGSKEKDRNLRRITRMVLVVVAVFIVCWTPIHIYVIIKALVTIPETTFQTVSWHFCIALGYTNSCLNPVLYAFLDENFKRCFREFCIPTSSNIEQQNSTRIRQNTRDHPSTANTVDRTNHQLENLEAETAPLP
Sequence of Cytochrome P450 2C9 (P11712 whole entry): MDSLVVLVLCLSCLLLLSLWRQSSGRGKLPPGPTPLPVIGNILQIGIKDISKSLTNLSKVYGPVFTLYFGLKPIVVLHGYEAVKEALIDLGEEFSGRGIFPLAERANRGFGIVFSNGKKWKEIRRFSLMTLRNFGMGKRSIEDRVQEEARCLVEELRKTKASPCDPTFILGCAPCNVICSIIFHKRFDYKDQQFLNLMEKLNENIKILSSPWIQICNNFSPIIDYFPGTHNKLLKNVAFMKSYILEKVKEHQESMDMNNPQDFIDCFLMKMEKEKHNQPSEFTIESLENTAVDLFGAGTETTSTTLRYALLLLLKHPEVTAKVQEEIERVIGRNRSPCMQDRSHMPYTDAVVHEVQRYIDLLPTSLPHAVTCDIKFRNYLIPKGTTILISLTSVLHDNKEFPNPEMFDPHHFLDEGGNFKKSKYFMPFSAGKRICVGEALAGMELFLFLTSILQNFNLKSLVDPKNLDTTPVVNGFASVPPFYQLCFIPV

For orientation: AC50 means the concentration giving half of the maximal activity seen. Turning to `NC(=O)c1ccccc1NC(=O)/C=C/c1cccc(Cl)c1`, the concentration at half-maximal activity (AC50) entry at Cytochrome P450 2C9 is given as “inconclusive”.
Consider `NCC(O)CN.Oc1c(Cl)c(Cl)c(Cl)c(Cl)c1Cl`, for which the AC50 entry at Cytochrome P450 2C19, on Cytochrome P450 2D6 [1] and at Cytochrome P450 3A4 was “inactive” each time.
In general, EC50 refers to the midpoint of the concentration-response curve. As usually defined, the IC50 is the concentration at which inhibition is half-maximal. With `CC(=O)Nc1cccc(C(=O)OCC(=O)c2ccc(S(=O)(=O)N3CCCCC3)cc2)c1`, on Beta-galactosidase, the EC50 is > 40 µM (inactive). Further, the half-maximal inhibitory concentration (IC50) in data set [2] was 18 µM (active).
Consider `COc1ccc(-n2cc(CNCc3cccnc3)c(-c3cccc(F)c3)n2)cc1`, for which the EC50 in data set [3] is > 260 µM (inactive); in data set [4], > 92.5 µM (inactive); at Mu-type opioid receptor it was 70.5 µM (inactive); in data set [5], > 92.5 µM (inactive).
Take `COc1cc2nc(NCCCN3CCN(C)CC3)n3nc(-c4ccccc4)nc3c2cc1OC`: the figures for the EC50 in [6] and in [7] were 1.87 µM (active) and > 60 µM (not active), respectively. The values for the IC50 (at Bcl-2-related protein A1; in data set [8]; in data set [9]) were > 20 µM (inactive), 17.6 µM (active) and 6.25 µM (active), respectively. Further, the AC50 in [10] is 2.98 µM (active).
As for `Cn1c(CN2CCN(c3cccc(Cl)c3)CC2)nc2ccccc21`, the EC50 in data set [11] was 2.11 µM (active); in data set [4] it was > 92.5 µM (inactive); on Mu-type opioid receptor it was 15.7 µM (inactive); in data set [5], > 92.5 µM (inactive).
As for `CN(C)S(=O)(=O)n1cc(/C=C(\NC(=O)c2ccccc2Cl)C(=O)N2CCCC2)c2ccccc21`, the EC50 in the data set on HEK293 [12] and in the data set on HEK293 [13] was > 59.6 µM (inactive) throughout.
For the compound `Cc1ccccc1-c1cc(Nc2ccccc2)ncn1`, the AC50 on Cytochrome P450 2D6 [14] was 39.8 µM (inconclusive); at Cytochrome P450 3A4, “inconclusive”.
For the compound `CCOC(=O)c1cc(-c2ccc(OC)cc2)nc2c1c(C)nn2CCC#N`, the IC50 was > 20 µM (inactive) at Bcl-2-related protein A1, 15 µM (active) in data set [8] and 6.8 µM (active) in [9].
With `N=c1ccn2c(n1)O[C@@H]1[C@@H](O)[C@H](CO)O[C@H]12`, the concentration at half-maximal activity (AC50) on Cytochrome P450 2C19 (read-out: AC50) is 0.0316 µM (inconclusive); at Cytochrome P450 3A4, “inconclusive”; at Cytochrome P450 2C9 it was “inconclusive”.
As to `CC1CCC(NC(=O)CCn2ccc3cc(S(=O)(=O)N4CCCC4)ccc32)CC1` (stereo unspecified), the AC50 in data set [15] is 3.53 µM (active); in data set [16], 0.999 µM (active); in data set [17], 5.19 µM (active); in data set [18], 4.28 µM (active). Besides, the EC50 in the data set on HEK293 [12] and with HEK293 [13] was > 59.6 µM (inactive) throughout.

These data come from ChEMBL document CHEMBL1201862, “PubChem BioAssay data set” (2004).
